In patent publication US20040266864A1, “Methods for treating depression and other CNS disorders using enantiomerically enriched desmethyl-and didesmethyl-metabolites of citalopram” (Sepracor Inc., priority 2001, published 2004):
pIC50, pKi: −log10 of the molar value.

Experiments:
NE uptake = biological target: T1, NE uptake (Rattus norvegicus, UniProt Q63380); assay: Inhibition of norepinephrine reuptake into rat brain synaptosomes; format: biochemical; conditions: functional monoamine uptake
T1 construct: norepinephrine (NE) and dopamine into similarly prepared synaptosomes; from tissue; host or cells: rat brain synaptosomes

[1] = tested on: receptors for various neurotransmitters, enzymes, other reuptake sites; conditions: acetylcholine, histamine, norepinephrine, dopamine receptors, monoamine oxidase; cited from earlier work
cytochrome P450 enzymes = conditions: P450 4A, 2C19, 2D6, 1A2, 2C9, 2E1; cited from earlier work
5-HT Transporter [2] = biological target: 5-HT Transporter (Rattus norvegicus, UniProt P31652); assay: Rat 5-HT transporter IC50/Ki; format: binding
DA Transporter = DA Transporter (Homo sapiens, UniProt Q01959); format: binding
5-HT uptake = biological target: T2, 5-HT uptake (Rattus norvegicus, UniProt P31652); assay: Inhibition of reuptake of radiolabeled serotonin into rat brain synaptosomes; format: biochemical; conditions: functional monoamine uptake
T2 construct: synaptosomes prepared from various regions of rat brains; from tissue; host or cells: rat brain synaptosomes

NE Transporter = NE Transporter (Homo sapiens, UniProt P23975); assay: Human NE transporter IC50/Ki; format: binding
DA uptake = biological target: T3, DA uptake (Rattus norvegicus, UniProt P23977); assay: Inhibition of dopamine reuptake into rat brain synaptosomes; format: biochemical; conditions: functional monoamine uptake
T3 construct: norepinephrine (NE) and dopamine into similarly prepared synaptosomes; from tissue; host or cells: rat brain synaptosomes

[3] = Sanchez and Hyttel 1999; cited from earlier work
5-HT Transporter [4] = biological target: 5-HT Transporter (Homo sapiens, UniProt P31645); format: binding
5-HT Transporter (Homo sapiens, UniProt P31645), sequence (P31645 whole entry): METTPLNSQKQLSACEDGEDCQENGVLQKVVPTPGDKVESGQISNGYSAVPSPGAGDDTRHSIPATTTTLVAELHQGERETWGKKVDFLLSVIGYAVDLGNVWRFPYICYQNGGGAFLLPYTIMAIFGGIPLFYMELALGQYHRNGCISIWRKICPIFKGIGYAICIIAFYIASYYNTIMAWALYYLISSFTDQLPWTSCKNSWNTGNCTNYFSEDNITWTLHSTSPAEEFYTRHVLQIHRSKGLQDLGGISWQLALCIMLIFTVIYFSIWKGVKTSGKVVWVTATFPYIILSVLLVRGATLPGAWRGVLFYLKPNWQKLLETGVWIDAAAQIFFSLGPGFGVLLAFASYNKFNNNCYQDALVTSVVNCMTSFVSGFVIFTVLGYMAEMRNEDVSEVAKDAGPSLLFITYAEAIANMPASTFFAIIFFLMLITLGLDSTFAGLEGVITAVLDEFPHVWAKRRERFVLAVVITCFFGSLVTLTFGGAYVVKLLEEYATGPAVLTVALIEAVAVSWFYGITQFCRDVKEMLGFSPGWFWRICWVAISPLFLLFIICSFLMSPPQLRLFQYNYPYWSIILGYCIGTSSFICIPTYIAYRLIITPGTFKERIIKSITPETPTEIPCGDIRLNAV

NE Transporter, sequence (P23975 whole entry): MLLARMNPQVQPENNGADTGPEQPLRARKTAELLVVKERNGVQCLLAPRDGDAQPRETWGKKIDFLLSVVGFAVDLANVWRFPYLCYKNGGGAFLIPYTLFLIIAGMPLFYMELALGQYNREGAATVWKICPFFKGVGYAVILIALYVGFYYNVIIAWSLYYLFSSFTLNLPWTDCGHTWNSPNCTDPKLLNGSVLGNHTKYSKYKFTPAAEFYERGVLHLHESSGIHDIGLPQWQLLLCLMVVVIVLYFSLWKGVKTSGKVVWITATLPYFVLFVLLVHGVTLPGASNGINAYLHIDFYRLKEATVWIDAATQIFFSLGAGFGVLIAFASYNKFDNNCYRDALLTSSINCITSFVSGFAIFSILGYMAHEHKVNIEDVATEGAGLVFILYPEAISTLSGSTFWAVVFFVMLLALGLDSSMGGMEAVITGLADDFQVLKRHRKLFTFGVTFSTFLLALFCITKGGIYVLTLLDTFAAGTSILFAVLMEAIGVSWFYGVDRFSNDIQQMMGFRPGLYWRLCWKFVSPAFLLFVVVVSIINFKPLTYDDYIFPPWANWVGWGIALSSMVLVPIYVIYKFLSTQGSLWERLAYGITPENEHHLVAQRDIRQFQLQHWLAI
T2 sequence (P31652 whole entry): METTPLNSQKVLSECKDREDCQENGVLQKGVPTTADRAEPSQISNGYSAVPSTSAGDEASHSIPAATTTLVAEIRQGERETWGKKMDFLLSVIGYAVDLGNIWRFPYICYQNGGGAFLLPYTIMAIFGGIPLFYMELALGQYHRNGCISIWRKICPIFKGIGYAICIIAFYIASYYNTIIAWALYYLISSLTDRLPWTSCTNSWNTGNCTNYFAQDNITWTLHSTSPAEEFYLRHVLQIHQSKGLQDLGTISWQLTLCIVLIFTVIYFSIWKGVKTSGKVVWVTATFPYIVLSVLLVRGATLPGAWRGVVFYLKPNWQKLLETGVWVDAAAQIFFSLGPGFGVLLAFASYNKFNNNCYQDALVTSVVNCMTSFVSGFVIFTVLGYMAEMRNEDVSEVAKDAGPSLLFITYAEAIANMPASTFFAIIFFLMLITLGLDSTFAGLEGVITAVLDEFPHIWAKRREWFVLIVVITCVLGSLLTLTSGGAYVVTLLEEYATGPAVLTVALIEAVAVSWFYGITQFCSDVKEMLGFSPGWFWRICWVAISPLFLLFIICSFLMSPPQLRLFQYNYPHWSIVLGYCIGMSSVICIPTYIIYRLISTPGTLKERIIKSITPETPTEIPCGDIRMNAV
5-HT Transporter (Rattus norvegicus, UniProt P31652), sequence (P31652 whole entry): as above
T1 sequence (Q63380 1-617): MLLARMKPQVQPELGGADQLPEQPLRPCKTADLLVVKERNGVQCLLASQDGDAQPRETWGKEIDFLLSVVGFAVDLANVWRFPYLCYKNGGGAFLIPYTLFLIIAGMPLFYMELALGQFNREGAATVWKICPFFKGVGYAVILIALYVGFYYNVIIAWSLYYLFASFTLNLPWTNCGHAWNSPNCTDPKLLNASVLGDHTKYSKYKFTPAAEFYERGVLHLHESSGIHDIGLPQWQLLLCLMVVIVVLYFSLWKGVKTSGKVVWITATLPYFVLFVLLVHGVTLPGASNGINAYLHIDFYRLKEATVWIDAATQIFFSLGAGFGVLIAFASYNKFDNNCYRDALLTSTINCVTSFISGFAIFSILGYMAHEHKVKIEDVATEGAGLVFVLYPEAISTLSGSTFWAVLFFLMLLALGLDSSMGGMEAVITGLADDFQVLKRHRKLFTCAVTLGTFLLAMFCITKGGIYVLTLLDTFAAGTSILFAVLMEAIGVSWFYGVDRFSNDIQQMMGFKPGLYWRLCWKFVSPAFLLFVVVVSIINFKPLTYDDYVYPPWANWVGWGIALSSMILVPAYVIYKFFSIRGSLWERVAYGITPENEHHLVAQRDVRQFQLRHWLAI
DA Transporter, sequence (Q01959 whole entry): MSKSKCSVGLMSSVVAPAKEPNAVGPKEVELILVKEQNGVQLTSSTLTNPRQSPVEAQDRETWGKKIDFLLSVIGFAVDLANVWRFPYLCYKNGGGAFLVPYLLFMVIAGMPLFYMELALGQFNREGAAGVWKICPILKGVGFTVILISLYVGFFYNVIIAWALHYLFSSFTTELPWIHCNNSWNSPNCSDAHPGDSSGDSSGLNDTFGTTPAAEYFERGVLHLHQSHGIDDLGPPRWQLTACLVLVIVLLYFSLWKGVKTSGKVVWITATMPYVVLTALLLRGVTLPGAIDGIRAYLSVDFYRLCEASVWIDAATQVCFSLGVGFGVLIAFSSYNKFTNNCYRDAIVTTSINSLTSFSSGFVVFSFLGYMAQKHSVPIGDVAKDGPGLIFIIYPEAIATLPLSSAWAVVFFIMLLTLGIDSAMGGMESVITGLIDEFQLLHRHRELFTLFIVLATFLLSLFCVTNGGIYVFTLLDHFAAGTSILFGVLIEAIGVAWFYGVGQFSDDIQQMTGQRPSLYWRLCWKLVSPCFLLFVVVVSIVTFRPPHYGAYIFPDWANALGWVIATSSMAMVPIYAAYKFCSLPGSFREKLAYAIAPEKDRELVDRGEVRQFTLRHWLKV
T3 sequence (P23977 whole entry): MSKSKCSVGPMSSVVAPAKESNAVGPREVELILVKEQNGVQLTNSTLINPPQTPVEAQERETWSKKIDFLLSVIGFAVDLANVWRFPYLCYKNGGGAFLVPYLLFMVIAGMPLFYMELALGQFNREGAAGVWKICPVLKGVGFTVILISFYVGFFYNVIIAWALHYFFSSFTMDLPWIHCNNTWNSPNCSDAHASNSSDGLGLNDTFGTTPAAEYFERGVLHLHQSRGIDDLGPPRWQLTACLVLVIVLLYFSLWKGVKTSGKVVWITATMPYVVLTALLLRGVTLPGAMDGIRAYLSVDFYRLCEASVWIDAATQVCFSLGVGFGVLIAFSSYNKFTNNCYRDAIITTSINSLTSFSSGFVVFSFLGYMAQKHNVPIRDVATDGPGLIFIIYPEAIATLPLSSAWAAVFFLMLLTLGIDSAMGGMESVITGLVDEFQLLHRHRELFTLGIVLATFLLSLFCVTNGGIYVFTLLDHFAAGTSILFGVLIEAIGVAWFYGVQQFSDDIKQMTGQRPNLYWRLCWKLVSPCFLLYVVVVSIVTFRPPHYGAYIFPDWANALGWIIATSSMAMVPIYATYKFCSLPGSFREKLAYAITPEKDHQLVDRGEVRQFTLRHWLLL

**Q.** Which results are given for `CN(C)CCCC1(c2ccc(F)cc2)OCc2cc(C#N)ccc21` (racemic) [Racemic Citalopram, (±)-1-(3-dimethylaminopropyl)-1-(4-fluorophenyl)-1,3-dihydroisobenzofuran-5-carbonitrile, reference compound]?
**A.** pIC50 (NE uptake): 5.31; affinity for neurotransmitter receptors, enzymes and other reuptake sites [1]: negligible affinity; inhibition of cytochrome P450 enzyme activity (not by more than) (cytochrome P450 enzymes): mild degree

**Q.** Which “inhibition of cytochrome P450 enzyme activity (not by more than)” value (cytochrome P450 enzymes) does the source give for `CNCCCC1(c2ccc(F)cc2)OCc2cc(C#N)ccc21` (racemic) [desmethylcitalopram, (±)-1-(3-methylaminopropyl)-1-(4-fluorophenyl)-1,3-dihydroisobenzofuran-5-carbonitrile] here?
**A.** mild degree

**Q.** With `CNCCCC1(c2ccc(F)cc2)OCc2cc(C#N)ccc21` (single isomer, unassigned; (+)) [(+)-Desmethylcitalopram] as the molecule, how does the pIC50 (5-HT Transporter [2]) read?
**A.** 8.89

**Q.** And the pKi (5-HT Transporter [2])?
**A.** 9.57

**Q.** And the pIC50 (NE uptake)?
**A.** 5.39

**Q.** And the pIC50 (DA Transporter)?
**A.** 4.56

**Q.** What about the pKi (DA Transporter) of the same molecule?
**A.** 4.90

**Q.** And the pIC50 (5-HT uptake)?
**A.** 8.24

**Q.** What about the pIC50 (NE Transporter) of the same molecule?
**A.** 4.99

**Q.** What about the pKi (NE Transporter) of the same molecule?
**A.** 5.02

**Q.** And the pIC50 (DA uptake)?
**A.** 5.12

**Q.** With `N#Cc1ccc2c(c1)COC2(CCCN)c1ccc(F)cc1` (single isomer, unassigned; (+)) [(+)-Didesmethylcitalopram] as the molecule, how does the pIC50 (5-HT Transporter [2]) read?
**A.** 7.72

**Q.** What about the pKi (5-HT Transporter [2]) of the same molecule?
**A.** 8.41

**Q.** And the pIC50 (NE uptake)?
**A.** 5.48

**Q.** What about the pIC50 (DA Transporter) of the same molecule?
**A.** 4.26

**Q.** What about the pKi (DA Transporter) of the same molecule?
**A.** 4.60

**Q.** And the pIC50 (5-HT uptake)?
**A.** 6.74

**Q.** And the pIC50 (NE Transporter)?
**A.** 4.62

**Q.** What about the pKi (NE Transporter) of the same molecule?
**A.** 4.65

**Q.** And the “half-lives compared to citalopram” value [3]?
**A.** measurably longer

**Q.** And the pIC50 (5-HT Transporter [4])?
**A.** 6.66

**Q.** What about the pKi (5-HT Transporter [4]) of the same molecule?
**A.** 7.05

**Q.** And the pIC50 (DA uptake)?
**A.** 4.96

**Q.** With `N#Cc1ccc2c(c1)COC2(CCCN)c1ccc(F)cc1` (single isomer, unassigned; (-)) [(−)-Didesmethylcitalopram] as the molecule, how does the pIC50 (5-HT Transporter [2]) read?
**A.** 7.57

**Q.** What about the pKi (5-HT Transporter [2]) of the same molecule?
**A.** 8.26

**Q.** And the pIC50 (NE uptake)?
**A.** 5.89

**Q.** And the pIC50 (DA Transporter)?
**A.** 4.41

**Q.** And the pKi (DA Transporter)?
**A.** 4.75

**Q.** And the pIC50 (5-HT uptake)?
**A.** 6.89

**Q.** What about the pIC50 (NE Transporter) of the same molecule?
**A.** 5.26

**Q.** And the pKi (NE Transporter)?
**A.** 5.29

**Q.** And the “half-lives compared to citalopram” value [3]?
**A.** measurably longer

**Q.** And the pIC50 (5-HT Transporter [4])?
**A.** 7.85

**Q.** And the pKi (5-HT Transporter [4])?
**A.** 8.24

**Q.** And the pIC50 (DA uptake)?
**A.** 5.57

**Q.** With (−)-Desmethylcitalopram as the molecule, how does the pIC50 (5-HT Transporter [2]) read?
**A.** 7.96

**Q.** What about the pKi (5-HT Transporter [2]) of the same molecule?
**A.** 8.64

**Q.** What about the pIC50 (NE uptake) of the same molecule?
**A.** 5.77

**Q.** What about the pIC50 (DA Transporter) of the same molecule?
**A.** 4.42

**Q.** And the pKi (DA Transporter)?
**A.** 4.77

**Q.** What about the pIC50 (5-HT uptake) of the same molecule?
**A.** 6.96

**Q.** What about the pIC50 (NE Transporter) of the same molecule?
**A.** 6.09

**Q.** What about the pKi (NE Transporter) of the same molecule?
**A.** 6.12

**Q.** What about the “half-lives compared to citalopram” value [3] of the same molecule?
**A.** measurably longer

**Q.** What about the pIC50 (5-HT Transporter [4]) of the same molecule?
**A.** 7.38

**Q.** What about the pKi (5-HT Transporter [4]) of the same molecule?
**A.** 7.77

**Q.** And the pIC50 (DA uptake)?
**A.** 5.03
